# Data: patent US20240398787A1, “TREATMENT OF MAJOR DEPRESSIVE DISORDER” (AbbVie Inc., priority 2021, published 2024)
# Where two headings read alike, the source gives them in different places.
# Columns and labels:
# [1] = system: patients with major depressive disorder (MDD); experiment: Clinical Global Impressions-Severity (CGI-S) score, Clinical Study A; assay type: in vivo, human; conditions: MMRM; for LS mean change from baseline, CGI-S score / LSMD vs placebo, CGI-S score: week 6
# Protocol: (§1) A global, multicenter, randomized, double-blind (DB), placebo-controlled, parallel-group, fixed-dose study compared cariprazine 1.5 mg/day and cariprazine 3 mg/day with placebo as an adjunctive treatment to ongoing ADT in outpatients with a diagnosis of MDD (via the Diagnostic and Statistical Manual of Mental Disorders, Fifth Edition [DSM-5]) having an inadequate response, as measured by the modified Antidepressant Treatment Response Questionnaire (ATRQ), to 1 to 3 antidepressants administered during the current episode at an adequate dose and adequate duration. Adequate dose was defined as a dose above the minimum labeled dose (per package insert). Adequate duration was defined as continuous ADT treatment for at least 6 weeks, with a minimum of 3 of 6 weeks above the minimal dose.
# (§2) The study consisted of up to 14 days screening (with up to an additional 7 days of needed) and washout of prohibited medications followed by 6 weeks of double-blind (DB) treatment followed by a 4-week safety follow-up. At the end of the screening period, patients meeting the entry criteria for the study were randomized (1:1:1) to 1 of 3 double-blind treatment groups. Study treatment groups were: cariprazine 1.5 mg/day+antidepressant therapy and cariprazine 3 mg/day+antidepressant therapy. The control group received matching placebo+antidepressant therapy.
# (§3) Dosage/Dose Regimen: Investigational product (cariprazine or placebo) in the form of capsules packaged in blister packs will be provided. No investigational product was administered during the screening/washout period; patients continued the same antidepressant and dose they were on at screening. Patients were taking more than one antidepressant at screening, regardless of the indication, discontinued all other antidepressants prior to baseline (Visit 2). During the double-blind treatment period (6 weeks), patients were administered 1 capsule orally per day in addition to their ongoing ADT. Patients in the 1.5 mg/day+ADT arm were administered 1.5 mg+ADT starting at Visit 2 (Week 0). Patients in the 3 mg/day+ADT arm were administered 1.5 mg+ADT starting at Visit 2 (Week 0) for 2 weeks and then titrate to 3 mg/day+ADT starting at Visit 4 (Week 2). Patients were supplied with identically appearing capsules of either cariprazine 1.5 mg, cariprazine 3 mg, or placebo.
# (§4) A randomized, double-blind, placebo-controlled, multicenter trial with 759 participants was conducted in United States, Bulgaria, Estonia, Germany, Hungary, Ukraine, and the United Kingdom. Following a screening period of up to 14 days (with up to an additional 7 days if needed), which included a washout of prohibited psychotropic medications except for ongoing ADT, patients with a partial response to their antidepressant monotherapy were randomized into three treatment groups (1:1:1). One group received cariprazine 1.5 mg/d+ADT, one received cariprazine 3.0 mg/d+ADT, and one group received placebo+ADT. All participants randomized to cariprazine began on 1.5 mg/d; cariprazine 1.5 mg/d patients remained at that dosage, while cariprazine 3.0 mg/d patients received 1.5 mg/d for 2 weeks and increased to 3.0 mg/d on day 15.
# The primary and secondary efficacy parameters were change from baseline to week 6 in Montgomery-Åsberg Depression Rating Scale (MADRS) total score and Clinical Global Impressions-Severity (CGI-S) score, respectively (screening, baseline, and weeks 1, 2, 4, and 6). Additional efficacy parameters (screening, baseline, and ≥1 double-blind visit) included: MADRS response (≥50% MADRS total score reduction) and remission (MADRS total score ≤10); change from baseline in HAMD-17 total score and Hamilton Anxiety Rating Scale (HAM-A) total score (32); and Clinical Global Impressions-Improvement (CGI-I) score and response (CGI-I score ≤2).
# The CGI-S (Guy 1976) is a clinician-rated scale that measures the overall severity of a patient's illness in comparison with the severity in other patients the physician has observed. […]
# [2] = system: patients with major depressive disorder (MDD); experiment: Adverse events and discontinuations during double-blind treatment period, Clinical Study A; assay type: in vivo, human; conditions: for TEAE: Akathisia / TEAE: Headache / TEAE: Insomnia / TEAE: Nausea / TEAE: Somnolence: N = 252; for Deaths: safety population; for Treatment-emergent adverse events (TEAEs): safety population N = 252
# Protocol: as §1, §2, §3
# as §4, with “Following” for “A randomized, double-blind, placebo-controlled, multicenter trial with 759 participants was conducted in United States, Bulgaria, Estonia, Germany, Hungary, Ukraine, and the United Kingdom. Following”
# Table 15 summarizes the most frequent TEAEs occurring in ≥5% in any treatment group, and Table 16 summarizes changes in weight. An AE was considered a treatment-emergent adverse event (TEAE) if the AE began or worsened (increased in severity or became serious) on or after the first dose of double-blinded investigational product.
# [3] = Weight changes, Clinical Study A; assay type: in vivo, human
# Protocol: as §1, §2, §3
# A randomized, double-blind, placebo-controlled, multicenter trial with 759 participants was conducted in United States, Bulgaria, Estonia, Germany, Hungary, Ukraine, and the United Kingdom. […]
# [4] = system: MDD patients who had inadequate response to ongoing antidepressant treatment; conditions: adjunctive, Durgam et al. 2016, cited from earlier work
# [5] = 1.5 mg/day + ADT, double-blind period
# [6] = 1.5 mg/day + ADT, randomized population N = 252
# [7] = 3.0 mg/day + ADT, double-blind period
# [8] = 3 mg/day + ADT, randomized population N = 253
structure (smiles),measurement,setting,value
"CN(C)C(=O)N[C@H]1CC[C@H](CCN2CCN(c3cccc(Cl)c3Cl)CC2)CC1 [Cariprazine, trans-N-{4-[2-[4-(2,3-dichlorophenyl)piperazin-1-yl]ethyl]cyclohexyl}-N′,N′-dimethylurea]","LS Mean (SE) change from baseline, CGI-S score","[1]; 1.5 mg/day + ADT, week 1",−0.3 (0.1)
same,"LSMD (95% CI) vs placebo + ADT, CGI-S score","[1]; 1.5 mg/day + ADT, week 1","−0.1 (−0.2, 0)"
same,"LS Mean (SE) change from baseline, CGI-S score","[1]; 1.5 mg/day + ADT, week 2",−0.7 (0.1)
same,"LSMD (95% CI) vs placebo + ADT, CGI-S score","[1]; 1.5 mg/day + ADT, week 2","−0.1 (−0.2, 0.1)"
same,"LS Mean (SE) change from baseline, CGI-S score","[1]; 1.5 mg/day + ADT, week 4",−1.1 (0.1)
same,"LSMD (95% CI) vs placebo + ADT, CGI-S score","[1]; 1.5 mg/day + ADT, week 4","−0.3 (−0.4, −0.1)"
same,"LS mean change from baseline, CGI-S score",[1]; 1.5 mg/day + ADT,−1.4 (0.1)
same,"LSMD vs placebo, CGI-S score",[1]; 1.5 mg/day + ADT,"−0.3 (−0.5, −0.1)"
same,"LS Mean (SE) change from baseline, CGI-S score","[1]; 3 mg/day + ADT, week 1",−0.3 (0.1)
same,"LSMD (95% CI) vs placebo + ADT, CGI-S score","[1]; 3 mg/day + ADT, week 1","0 (−0.1, 0.1)"
same,"LS Mean (SE) change from baseline, CGI-S score","[1]; 3 mg/day + ADT, week 2",−0.6 (0.1)
same,"LSMD (95% CI) vs placebo + ADT, CGI-S score","[1]; 3 mg/day + ADT, week 2","0 (−0.2, 0.1)"
same,"LS Mean (SE) change from baseline, CGI-S score","[1]; 3 mg/day + ADT, week 4",−1.0 (0.1)
same,"LSMD (95% CI) vs placebo + ADT, CGI-S score","[1]; 3 mg/day + ADT, week 4","−0.1 (−0.3, 0.1)"
same,"LS mean change from baseline, CGI-S score",[1]; 3 mg/day + ADT,−1.3 (0.1)
same,"LSMD vs placebo, CGI-S score",[1]; 3 mg/day + ADT,"−0.2 (−0.4, 0)"
same,TEAE: Akathisia,[2]; 1.5 mg/day + ADT,13 (5.2) n (%)
same,TEAE: Headache,[2]; 1.5 mg/day + ADT,22 (8.7) n (%)
same,TEAE: Insomnia,[2]; 1.5 mg/day + ADT,18 (7.1) n (%)
same,TEAE: Nausea,[2]; 1.5 mg/day + ADT,20 (7.9) n (%)
same,TEAE: Somnolence,[2]; 1.5 mg/day + ADT,13 (5.2) n (%)
same,Any Extrapyramidal Symptoms (EPS) TEAEs,[2]; [5],25 (9.9) n (%)
same,Treatment-emergent Serious AE (TESAE),[2]; [5],1 (0.4) n (%)
same,Deaths,[2]; [5],0 n (%)
same,Treatment-emergent adverse events (TEAEs),[2]; [5],125 (49.6) n (%)
same,Premature discontinuation due to Death,[2]; [6],0 n (%)
same,Premature discontinuation due to Lack of Efficacy,[2]; [6],2 (0.8) n (%)
same,TEAE: Akathisia,[2]; 3.0 mg/day + ADT,20 (7.9) n (%)
same,TEAE: Headache,[2]; 3.0 mg/day + ADT,11 (4.4) n (%)
same,TEAE: Insomnia,[2]; 3.0 mg/day + ADT,16 (6.3) n (%)
same,TEAE: Nausea,[2]; 3.0 mg/day + ADT,16 (6.3) n (%)
same,TEAE: Somnolence,[2]; 3.0 mg/day + ADT,11 (4.4) n (%)
same,Any Extrapyramidal Symptoms (EPS) TEAEs,[2]; [7],38 (15.1) n (%)
same,TEAE leading to discontinuation from study,[2]; [7],18 (7.1) n (%)
same,Treatment-emergent Serious AE (TESAE),[2]; [7],1 (0.4) n (%)
same,Deaths,[2]; [7],0 n (%)
same,Treatment-emergent adverse events (TEAEs),[2]; [7],124 (49.2) n (%)
same,Premature discontinuation due to Adverse Event,[2]; [8],18 (7.1) n (%)
same,Premature discontinuation due to Death,[2]; [8],0 n (%)
same,Premature discontinuation due to Lack of Efficacy,[2]; [8],0 n (%)
same,Most common adverse events occurring at ≥5% in the cariprazine groups,[2]; six-week study period,"akathisia, nausea, insomnia, headache and somnolence"
same,Safety results (overall),[2]; six-week study period,no new safety signals identified
same,"Weight change from baseline, mean (SD)","[3]; 1.5 mg + ADT, n = 252",0.68 (2.5) kg
same,Weight increase ≥7% from baseline,"[3]; 1.5 mg + ADT, n = 252",10 (4.0) n (%)
same,"Weight change from baseline, mean (SD)","[3]; 3 mg + ADT, n = 252",0.78 (2.8) kg
same,Changes in weight at the end of treatment,[3]; all treatment groups,< 1 kg
same,"LSMD vs placebo, MADRS total score",[4]; 1-2 mg per day variable dosing,−0.9
same,"LSMD vs placebo, MADRS total score",[4]; 2-4.5 mg per day variable dosing,−2.2
